In patent publication US8846730B2, “Compounds as cannabinoid receptor ligands” (priority 2008, dated 2014) one finds Ki and EC50 data, which are given here for 16 molecules.

Structures are written as SMILES. pEC50, pKi: −log10 of the molar value. Read-outs that look alike come from different tables or passages of the source. Bounds are passed on as bounds.

Test [1] concerns the target human CB2 receptors (Homo sapiens (Human), UniProt P34972). Kind of test: human CB2 radioligand binding assay ([3H]CP 55,940 competition). The procedure:
(§1) The CB1 and CB2 radioligand binding assays described herein are utilized to ascertain the affinity of compounds of the present application for binding to CB2 relative to CB1 receptors.
HEK293 cells stably expressing human CB2 receptors were grown until a confluent monolayer was formed. Briefly, the cells were harvested and homogenized in TE buffer (50 mM Tris-HCl, 1 mM MgCl2, and 1 mM EDTA) using a polytron for 2×10 second bursts in the presence of protease inhibitors, followed by centrifugation at 45,000×g for 20 minutes. The final membrane pellet was re-homogenized in storage buffer (50 mM Tris-HCl, 1 mM MgCl2, and 1 mM EDTA and 10% sucrose) and frozen at −78° C. until used. Saturation binding reactions were initiated by the addition of membrane preparation (protein concentration of 5 μg/well for human CB2) into wells of a deep well plate containing [^3H]CP 55,940 (120 Ci/mmol, a nonselective CB agonist commercially available from Tocris) in assay buffer (50 mM Tris, 2.5 mM EDTA, 5 mM MgCl2, and 0.5 mg/mL fatty acid free BSA, pH 7.4). After 90 min incubation at 30° C., binding reaction was terminated by the addition of 300 μL/well of cold assay buffer followed by rapid vacuum filtration through a UniFilter-96 GF/C filter plates (pre-soaked in 1 mg/mL BSA for 2 hours). The bound activity was counted in a TopCount using Microscint-20. Saturation experiments were conducted with twelve concentrations of [^3H]CP 55,940 ranging from 0.01 to 8 nM. Competition experiments were conducted with 0.5 nM [^3H]CP 55,940 and five concentrations (0.01 nM to 10 μM) of displacing ligands. The addition of 10 μM unlabeled CP 55,940 (Tocris, Ellisville, Mo.) was used to assess nonspecific binding.

Test [2] concerns the target rat CB2 receptors (Rattus norvegicus (Rat), UniProt Q9QZN9). Kind of test: rat CB2 radioligand binding assay ([3H]CP 55,940 competition). To be noted: HEK293 membranes, 0.5 nM [3H]CP 55,940. The procedure:
as §1
HEK293 cells stably expressing rat CB2 receptors were grown until a confluent monolayer was formed. Briefly, the cells were harvested and homogenized in TE buffer (50 mM Tris-HCl, 1 mM MgCl2, and 1 mM EDTA) using a polytron for 2×10 second bursts in the presence of protease inhibitors, followed by centrifugation at 45,000×g for 20 minutes. The final membrane pellet was re-homogenized in storage buffer (50 mM Tris-HCl, 1 mM MgCl2, and 1 mM EDTA and 10% sucrose) and frozen at −78° C. until used. Saturation binding reactions were initiated by the addition of membrane preparation (protein concentration of 20 μg/well for rat CB2) into wells of a deep well plate containing [^3H]CP 55,940 (120 Ci/mmol, a nonselective CB agonist commercially available from Tocris) in assay buffer (50 mM Tris, 2.5 mM EDTA, 5 mM MgCl2, and 0.5 mg/mL fatty acid free BSA, pH 7.4). After 45 min incubation at 30° C., binding reaction was terminated by the addition of 300 μl/well of cold assay buffer followed by rapid vacuum filtration through a UniFilter-96 GF/C filter plates (pre-soaked in 1 mg/mL BSA for 2 hours). The bound activity was counted in a TopCount using Microscint-20. Saturation experiments were conducted with twelve concentrations of [^3H]CP 55,940 ranging from 0.01 to 8 nM. Competition experiments were conducted with 0.5 nM [^3H]CP 55,940 and five concentrations of displacing ligands selected from the range of 0.01 nM to 10 μM. The addition of 10 μM unlabeled CP 55,940 (Tocris, Ellisville, Mo.) was used to assess nonspecific binding.

For test [3], the target named is rat CB1 receptors (HEK cells) (Rattus norvegicus (Rat), UniProt P20272). Description: rat CB1 cyclase functional assay (HitHunter cAMP). Type of test: cell-based. The procedure:
The cyclase functional assays were performed using the HitHunter™ cAMP assay kit from DiscoveRx (Fremont, Calif.) according to vendor's protocol. Briefly, HEK cells expressing CB2 or CB1 receptors (rat or human) were detached using cell dissociation buffer (Invitrogen, Carlsbad, Calif.), dispersed and placed in suspension at 10,000 cells per well in 96 well plates prior to the assay. Cell suspensions were incubated at 37° C. for 20 min with variable concentrations of test ligands and or 10 μM CP 55,940-positive control in the presence of a fixed concentration of forskolin (18 μM for rat CB2 and 37 μM for rat CB1) in Dulbescco's phosphate-buffered saline (Invitrogen, Carlsbad, Calif.) supplemented with bovine serum albumin (0.01% final concentration). The reactions were terminated by the addition of lysis buffer and the luminescence was detected following the procedure according to the manufacturer's instructions. EC50 values were calculated using sigmoidal dose-response curve fitting from Prism (GraphPad).

The mark [4] stands for this setting: HEK293 membranes, 0.5 nM [3H]CP 55,940, read-out: human CB2 (Ki).

Chain of human CB2 receptors (P34972 whole entry): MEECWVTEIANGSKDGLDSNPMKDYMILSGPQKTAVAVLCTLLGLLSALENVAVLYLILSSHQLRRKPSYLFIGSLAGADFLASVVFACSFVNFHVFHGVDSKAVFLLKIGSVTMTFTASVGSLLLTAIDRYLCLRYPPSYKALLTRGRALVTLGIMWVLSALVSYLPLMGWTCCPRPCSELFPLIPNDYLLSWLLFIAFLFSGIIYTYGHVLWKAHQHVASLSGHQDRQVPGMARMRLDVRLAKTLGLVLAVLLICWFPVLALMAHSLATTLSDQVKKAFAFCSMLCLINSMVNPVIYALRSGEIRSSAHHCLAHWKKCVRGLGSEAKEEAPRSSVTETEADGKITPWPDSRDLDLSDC
Chain of rat CB1 receptors (HEK cells) (P20272 whole entry): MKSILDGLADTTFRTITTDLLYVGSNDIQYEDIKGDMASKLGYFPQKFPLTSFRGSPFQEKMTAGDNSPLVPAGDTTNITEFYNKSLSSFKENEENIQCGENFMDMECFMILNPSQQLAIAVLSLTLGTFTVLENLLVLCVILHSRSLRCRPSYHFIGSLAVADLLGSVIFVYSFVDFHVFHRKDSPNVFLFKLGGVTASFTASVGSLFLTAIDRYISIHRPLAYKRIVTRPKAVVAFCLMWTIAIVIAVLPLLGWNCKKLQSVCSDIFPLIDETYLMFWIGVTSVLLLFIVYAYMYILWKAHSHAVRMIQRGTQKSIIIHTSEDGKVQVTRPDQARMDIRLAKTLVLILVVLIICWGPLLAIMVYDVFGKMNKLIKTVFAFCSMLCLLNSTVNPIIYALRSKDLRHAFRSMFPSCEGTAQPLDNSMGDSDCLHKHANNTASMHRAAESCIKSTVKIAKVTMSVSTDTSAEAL

Broadly, the pKi is −log10 of the Ki, conventionally taken in molar units. The pEC50 is −log10 of the EC50, conventionally taken in molar units. Take `CC(C)(C)NNc1ccc(C(F)(F)F)cc1C(=O)/N=c1\sc(C(C)(C)C)cn1C[C@H]1CCCO1` [Example 39, 2-(2-tert-butylhydrazino)-N-[(2Z)-5-tert-butyl-3-[(2R)-tetrahydrofuran-2-ylmethyl]-1,3-thiazol-2(3H)-ylidene]-5-(trifluoromethyl)benzamide]: the pKi in test [1] (setting [4]) was 8.43; in test [2] it was 8.77. The pEC50 in test [3] (HEK cells, forskolin 37 μM, read-out: rCB1 cyclase (EC50)) is under 4.57.
`CC(C)(C)OC(=O)NNc1ccc(C(F)(F)F)cc1C(=O)/N=c1\sc(C(C)(C)C)cn1C[C@H]1CCCO1` [Example 40, tert-butyl 2-[2-({[(2Z)-5-tert-butyl-3-[(2R)-tetrahydrofuran-2-ylmethyl]-1,3-thiazol-2(3H)-ylidene]amino}carbonyl)-4-(trifluoromethyl)phenyl]hydrazinecarboxylate]: the pKi in test [1] is 9.40; in test [2] it was 9.52.
In the case of `CC(=O)N1CCC[C@H]1COc1ccc(C(F)(F)F)cc1C(=O)/N=c1\sc(C(C)(C)C)cn1C[C@H]1CCCO1` [Example 47, 2-{[(2S)-1-acetylpyrrolidin-2-yl]methoxy}-N-[(2Z)-5-tert-but 1-3[(2R)-tetrahydrofuran-2-ylmethyl]-1,3-thiazol-2(3H)-ylidene]-5-(trifluoromethyl)benzamide], the pKi in test [1] (setting [4]) is 6.97; in test [2], 7.62.
The corresponding values for `CN1CCC[C@H]1CNc1ccc(C(F)(F)F)cc1C(=O)/N=c1\sc(C(C)(C)C)cn1C[C@H]1CCCO1` [Example 55, N-[(2Z)-5-tert-butyl-3-[(2R)-tetrahydrofuran-2-ylmethyl]-1,3-thiazol-2(3H)-ylidene]-2-({[(2S)-1-methylpyrrolidin-2-yl]methyl}amino)-5-(trifluoromethyl)benzamide] are 7.44 and 8.09.
For the molecule `CN1CCC[C@H]1COc1ccc(C(F)(F)F)cc1C(=O)/N=c1\scc(C(C)(C)C)n1C[C@H]1CCCO1` [Example 57, N-[(2Z)-4-tert-butyl-3-[(2R)-tetrahydrofuran-2-ylmethyl]-1,3-thiazol-2(3H)-ylidene]-2-{[(2S)-1-methylpyrrolidin-2-yl]methoxy}-5-(trifluoromethyl)benzamide], the pKi in test [1] (setting [4]) was 6.54; in test [2], 7.82.
`CC(C)(C)NOc1ccc(C(F)(F)F)cc1C(=O)/N=c1\sc(C(C)(C)C)cn1C[C@H]1CCCO1` [Example 65, 2-[(tert-butylamino)oxy]-N-[(2Z)-5-tert-butyl-3-[(2R)-tetrahydrofuran-2-ylmethyl]-1,3-thiazol-2(3H)-ylidene]-5-(trifluoromethyl)benzamide]: the pKi is 8.74 in test [1] (setting [4]) and 9.10 in test [2]. Besides, the pEC50 in test [3] is under 4.57.
On to `CC(C)(C)c1cn(C[C@H]2CCCO2)/c(=N/C(=O)c2cc(C(F)(F)F)ccc2OCC(C)(C)n2cccc2)s1` [Example 74, N-[(2Z)-5-tert-butyl-3-[(2R)-tetrahydrofuran-2-ylmethyl]-1,3-thiazol-2(3H)-ylidene]-2-[2-methyl-2-(1H-pyrrol-1-yl)propoxy]-5-(trifluoromethyl)benzamide], for which the values for the pKi in test [1] (setting [4]) and in test [2] were 7.47 and 8.18, respectively.
As for `CC(=O)NOc1ccc(C(F)(F)F)cc1C(=O)/N=c1\sc(C(C)(C)C)cn1C[C@H]1CCCO1` [Example 75, 2-[(acetylamino)oxy]-N-[(2Z)-5-tert-butyl-3-[(2R)-tetrahydrofuran-2-ylmethyl]-1,3-thiazol-2(3H)-ylidene]-5-(trifluoromethyl)benzamide], the pKi in test [1] (setting [4]) was 8.92; in test [2], 8.60.
Take `COCCn1cc(C(C)(C)C)s/c1=N\C(=O)c1cc(C(F)(F)F)ccc1ONC(C)(C)C` [Example 76, 2-[(tert-butylamino)oxy]-N-[(2Z)-5-tert-butyl-3-(2-methoxyethyl)-1,3-thiazol-2(3H)-ylidene]-5-(trifluoromethyl)benzamide]: the pKi was 7.70 in test [1] and 8.28 in test [2].
As to `CC(CN1CCC[C@H]1COc1ccc(C(F)(F)F)cc1C(=O)/N=c1\sc(C(C)(C)C)cn1C[C@H]1CCCO1)=NO` [Example 77, N-[(2Z)-5-tert-butyl-3-[(2R)-tetrahydrofuran-2-ylmethyl]-1,3-thiazol-2(3H)-ylidene]-2-({(2S)-1-[2-(hydroxyimino)propyl]pyrrolidin-2-yl}methoxy)-5-(trifluoromethyl)benzamide], the values for the pKi in test [1] (setting [4]) and in test [2] were 7.07 and 7.19, respectively.
For the molecule `CCN(CC)Oc1ccc(C(F)(F)F)cc1C(=O)/N=c1\sc(C(C)(C)C)cn1C[C@H]1CCCO1` [Example 78, N-[(2Z)-5-tert-butyl-3-[(2R)-tetrahydrofuran-2-ylmethyl]-1,3-thiazol-2(3H)-ylidene]-2-[(diethylamino)oxy]-5-(trifluoromethyl)benzamide], the results for the pKi in test [1] (setting [4]) and in test [2] were 7.66 and 8.34, respectively.
The corresponding values for `CC(C)NOc1ccc(C(F)(F)F)cc1C(=O)/N=c1\sc(C(C)(C)C)cn1C[C@H]1CCCO1` [Example 79, N-[(2Z)-5-tert-butyl-3-[(2R)-tetrahydrofuran-2-ylmethyl]-1,3-thiazol-2(3H)-ylidene]-2-[(isopropylamino)oxy]-5-(trifluoromethyl)benzamide] are 9.52 and 9.30.
Consider `C[C@@H](O)COc1ccc(C(F)(F)F)cc1C(=O)/N=c1\sc(C(C)(C)C)cn1C[C@H]1CCCO1` [Example 81, N-[(2Z)-5-tert-butyl-3-[(2R)-tetrahydrofuran-2-ylmethyl]-1,3-thiazol-2(3H)-ylidene]-2-{[(2R)-2-hydroxypropyl]oxy}-5-(trifluoromethyl)benzamide], for which the pKi is 8.96 in test [1] (setting [4]) and 9.30 in test [2].
The corresponding values for `CC(COc1ccc(C(F)(F)F)cc1C(=O)/N=c1\sc(C(C)(C)C)cn1C[C@H]1CCCO1)=NOC(C)(C)C` [Example 82] are 8.31 and 8.77.
Consider `CC(C)(C)c1cn(C[C@H]2CCCO2)/c(=N/C(=O)c2cc(C(F)(F)F)ccc2ON=C2CCCC2)s1` [Example 83, N-[(2Z)-5-tert-butyl-3-(2R)-(tetrahydrofuran-2-ylmethyl)-1,3-thiazol-2(3H)-ylidene]-2-[(cyclopentylideneamino)oxy]-5-(trifluoromethyl)benzamide], for which the values for the pKi in test [1] and in test [2] were 9.30 and 8.92, respectively.
As to `CC(=O)C(C)=NOc1ccc(C(F)(F)F)cc1C(=O)/N=c1\sc(C(C)(C)C)cn1C[C@H]1CCCO1` [Example 84, N-[(2Z)-5-tert-butyl-3-[(2R)-tetrahydrofuran-2-ylmethyl]-1,3-thiazol-2(3H)-ylidene]-2-({[1-methyl-2-oxopropylidene]amino}oxy)-5-(trifluoromethyl)benzamide], the values for the pKi in test [1] (setting [4]) and in test [2] were 8.48 and 8.62, respectively.
